Test results reported in patent publication US12091426B2, “Bifunctional degraders of hematopoietic progenitor kinase and therapeutic uses thereof” (Nurix Therapeutics, Inc., priority 2021, dated 2024).

Molecular target: T1, HPK1 (Homo sapiens, UniProt Q92918)
T1 construct: A HiBiT tag was introduced by CRISPR on the N terminus of HPK1 in Jurkat cells; host or cells: Jurkat cells (ATCC TIB-152), monoclonal line with CRISPR knock-in of HiBiT at the endogenous HPK1 locus
Experiment: HPK1 Cellular HiBit Degradation Assay
Format: cell-based
Conditions: HiBiT HPK1 Jurkat cells, 24 hrs; for DC50: concentration at which 50% of HPK1 was remaining, read-out: DC50 Category; for Dmax: Jurkat, maximum degradation vs DMSO vehicle control, read-out: Dmax Category
In short: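 Degraders are dosed in an 11-point series (10 uM to 0.1 nM final) onto Jurkat cells carrying an N-terminal HiBiT tag on endogenous HPK1. After 24 hrs at 37° C, lysis-based HiBiT luminescence quantifies remaining HPK1 relative to vehicle, and curve fitting gives DC50 and Dmax.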

T1 sequence (Q92918 whole entry): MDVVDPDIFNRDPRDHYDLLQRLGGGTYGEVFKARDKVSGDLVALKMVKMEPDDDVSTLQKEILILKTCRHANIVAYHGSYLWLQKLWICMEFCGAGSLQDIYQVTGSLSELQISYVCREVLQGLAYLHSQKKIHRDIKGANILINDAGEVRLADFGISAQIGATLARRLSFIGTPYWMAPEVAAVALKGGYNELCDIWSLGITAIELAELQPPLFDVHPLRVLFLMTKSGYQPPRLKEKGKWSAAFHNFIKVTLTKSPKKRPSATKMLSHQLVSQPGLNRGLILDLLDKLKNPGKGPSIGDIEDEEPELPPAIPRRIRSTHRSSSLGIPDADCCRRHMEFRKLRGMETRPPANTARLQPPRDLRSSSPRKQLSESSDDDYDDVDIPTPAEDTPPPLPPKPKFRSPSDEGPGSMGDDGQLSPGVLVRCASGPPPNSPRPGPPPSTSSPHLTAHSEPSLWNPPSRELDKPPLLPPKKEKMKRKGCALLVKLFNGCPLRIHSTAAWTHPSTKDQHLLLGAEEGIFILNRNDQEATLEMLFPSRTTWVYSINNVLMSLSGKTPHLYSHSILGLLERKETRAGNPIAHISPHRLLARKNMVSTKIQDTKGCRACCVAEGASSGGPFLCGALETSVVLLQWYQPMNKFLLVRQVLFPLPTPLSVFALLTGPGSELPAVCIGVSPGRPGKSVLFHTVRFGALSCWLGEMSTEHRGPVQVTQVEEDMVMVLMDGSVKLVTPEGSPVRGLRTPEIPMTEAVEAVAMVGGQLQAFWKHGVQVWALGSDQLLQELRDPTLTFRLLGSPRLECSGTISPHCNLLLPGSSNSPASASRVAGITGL

Compound | DC50 | Dmax
CC(C)n1cnc2cc(-c3ccc4c(c3)N([C@H]3C[C@@H](N5CCCCC5)C3)C(=O)C43CCN(C(=O)C4(C)CCN(C(=O)[C@H]5CC[C@H](Cn6cc7cc(C8CCC(=O)NC8=O)ccc7n6)CC5)CC4)CC3)nc(Nc3ccccc3F)c21 (mixture of isomers) [Example 190, (3RS)-3-(2-{[(1R,4R)-4-{4-[(6-{4-[(2-fluorophenyl)amino]-3-(propan-2-yl)-3H-imidazo[4,5-c]pyridin-6-yl}-2-oxo-1-[(1S,3S)-3-(piperidin-1-yl)cyclobutyl]-1,2-dihydrospiro[indole-3,4′-piperidin]-1′-yl)carbonyl]-4-methylpiperidine-1-carbonyl}cyclohexyl]methyl}-2H-indazol-5-yl)piperidine-2,6-dione] | < 100 nM | 50 to 70%
CC(C)n1cnc2cc(-c3ccc4c(c3)N([C@H]3C[C@@H](N5CCCCC5)C3)C(=O)C43CCN(C(=O)C4(C)CCN(C(=O)[C@H]5CC[C@H](Nc6ccc(C7CCC(=O)NC7=O)cc6)CC5)CC4)CC3)nc(NC3CC3)c21 (mixture of isomers) [Example 191, (3RS)-3-(4-{[(1R,4R)-4-[4-({6-[4-(cyclopropylamino)-3-(propan-2-yl)-3H-imidazo[4,5-c]pyridin-6-yl]-2-oxo-1-[(1S,3S)-3-(piperidin-1-yl)cyclobutyl]-1,2-dihydrospiro[indole-3,4′-piperidin]-1′-yl}carbonyl)-4-methylpiperidine-1-carbonyl]cyclohexyl]amino}phenyl)piperidine-2,6-dione] | < 100 nM | 70 to 85%
CC(C)n1cnc2cc(-c3ccc4c(c3)N([C@H]3C[C@@H](N5C6CCC5COC6)C3)C(=O)C43CCN(C(=O)C4(C)CCN(C(=O)[C@H]5CC[C@H](Oc6ccc(C7CCC(=O)NC7=O)cc6)CC5)CC4)CC3)nc(NC3CC3)c21 (mixture of isomers) [Example 193, (3RS)-3-(4-{[(1R,4R)-4-[4-({6-[4-(cyclopropylamino)-3-(propan-2-yl)-3H-imidazo[4,5-c]pyridin-6-yl]-2-oxo-1-[(1S,3S)-3-{3-oxa-8-Azabicyclo[3.2.1]octan-8-yl}cyclobutyl]-1,2-dihydrospiro[indole-3,4′-piperidin]-1′-yl}carbonyl)-4-methylpiperidine-1-carbonyl]cyclohexyl]oxy}phenyl)piperidine-2,6-dione] | 100 to 500 nM | 50 to 70%
CC(C)n1cnc2cc(-c3ccc4c(c3)N([C@H]3C[C@@H](N5CCCCC5)C3)C(=O)C43CCN(C(=O)C4(C)CCN(C(=O)[C@H]5CC[C@H](Oc6ncc(C7CCC(=O)NC7=O)cn6)CC5)CC4)CC3)nc(NC3CC3)c21 (mixture of isomers) [Example 194, (3RS)-3-(2-{[(1R,4R)-4-[4-({6-[4-(cyclopropylamino)-3-(propan-2-yl)-3H-imidazo[4,5-c]pyridin-6-yl]-2-oxo-1-[(1S,3S)-3-(piperidin-1-yl)cyclobutyl]-1,2-dihydrospiro[indole-3,4′-piperidin]-1′-yl}carbonyl)-4-methylpiperidine-1-carbonyl]cyclohexyl]oxy}pyrimidin-5-yl)piperidine-2,6-dione] | 100 to 500 nM | 70 to 85%
CC(C)n1cnc2cc(-c3ccc4c(c3)N([C@H]3C[C@@H](N5C6COCC5C6)C3)C(=O)C43CCN(C(=O)C4(C)CCN(C(=O)C5CCN(c6ccc(C7CCC(=O)NC7=O)cc6)CC5)CC4)CC3)nc(NC3CC3)c21 (mixture of isomers) [Example 195, (3RS)-3-(4-{4-[4-({6-[4-(cyclopropylamino)-3-(propan-2-yl)-3H-imidazo[4,5-c]pyridin-6-yl]-2-oxo-1-[(1S,3S)-3-{3-oxa-6-Azabicyclo[3.1.1]heptan-6-yl}cyclobutyl]-1,2-dihydrospiro[indole-3,4′-piperidin]-1′-yl}carbonyl)-4-methylpiperidine-1-carbonyl]piperidin-1-yl}phenyl)piperidine-2,6-dione] | 500 to 1000 nM | 50 to 70%
CC(C)n1cnc2cc(-c3ccc4c(c3)N([C@H]3C[C@@H](N5CCCCC5)C3)C(=O)C43CCN(C(=O)C4(C)CCN(C(=O)C5CCN(c6ccc(C7CCC(=O)NC7=O)cc6)CC5)CC4)CC3)nc(NC3CCOCC3)c21 (mixture of isomers) [Example 196, (3RS)-3-[4-(4-{4-methyl-4-[(6-{4-[(oxan-4-yl)amino]-3-(propan-2-yl)-3H-imidazo[4,5-c]pyridin-6-yl}-2-oxo-1-[(1S,3S)-3-(piperidin-1-yl)cyclobutyl]-1,2-dihydrospiro[indole-3,4′-piperidin]-1′-yl)carbonyl]piperidine-1-carbonyl}piperidin-1-yl)phenyl]piperidine-2,6-dione] | < 100 nM | 70 to 85%
CC(C)n1cnc2cc(-c3ccc4c(c3)N([C@H]3C[C@@H](N5CC6CCC(C5)O6)C3)C(=O)C43CCN(C(=O)C4(C)CCN(C(=O)C5CCN(c6ccc(C7CCC(=O)NC7=O)cc6)CC5)CC4)CC3)nc(NC3CC3)c21 (mixture of isomers) [Example 197] | 100 to 500 nM | 50 to 70%
CC(C)n1cnc2cc(-c3ccc4c(c3)N([C@H]3C[C@@H](N5CCC[C@H](F)C5)C3)C(=O)C43CCN(C(=O)C4(C)CCN(C(=O)C5CCN(c6ccc(C7CCC(=O)NC7=O)cc6)CC5)CC4)CC3)nc(NC3CC3)c21 (mixture of isomers) [Example 198, (3RS)-3-(4-{4-[4-({6-[4-(cyclopropylamino)-3-(propan-2-yl)-3H-imidazo[4,5-c]pyridin-6-yl]-2-oxo-1-[(1S,3S)-3-[(3S)-3-fluoropiperidin-1-yl]cyclobutyl]-1,2-dihydrospiro[indole-3,4′-piperidin]-1′-yl}carbonyl)-4-methylpiperidine-1-carbonyl]piperidin-1-yl}phenyl)piperidine-2,6-dione] | 100 to 500 nM | 70 to 85%
CC(C)n1cnc2cc(-c3ccc4c(c3)N([C@H]3C[C@@H](N5CCC[C@@H](F)C5)C3)C(=O)C43CCN(C(=O)C4(C)CCN(C(=O)C5CCN(c6ccc(C7CCC(=O)NC7=O)cc6)CC5)CC4)CC3)nc(NC3CC3)c21 (mixture of isomers) [Example 199, (3RS)-3-(4-{4-[4-({6-[4-(cyclopropylamino)-3-(propan-2-yl)-3H-imidazo[4,5-c]pyridin-6-yl]-2-oxo-1-[(1S,3S)-3-[(3R)-3-fluoropiperidin-1-yl]cyclobutyl]-1,2-dihydrospiro[indole-3,4′-piperidin]-1′-yl}carbonyl)-4-methylpiperidine-1-carbonyl]piperidin-1-yl}phenyl)piperidine-2,6-dione] | 100 to 500 nM | 50 to 70%
CC(C)n1cnc2cc(-c3ccc4c(c3)N([C@H]3C[C@@H](N5C6CCC5COC6)C3)C(=O)C43CCN(C(=O)C4(C)CCN(C(=O)CC5CCN(c6ccc(C7CCC(=O)NC7=O)cc6)CC5)CC4)CC3)nc(NC3CC3)c21 (mixture of isomers) [Example 202, (3RS)-3-[4-(4-{2-[4-({6-[4-(cyclopropylamino)-3-(propan-2-yl)-3H-imidazo[4,5-c]pyridin-6-yl]-2-oxo-1-[(1S,3S)-3-{3-oxa-8-azabicyclo[3.2.1]octan-8-yl}cyclobutyl]-1,2-dihydrospiro[indole-3,4′-piperidin]-1′-yl}carbonyl)-4-methylpiperidin-1-yl]-2-oxoethyl}piperidin-1-yl)phenyl]piperidine-2,6-dione] | 500 to 1000 nM | 50 to 70%
CC(C)n1cnc2cc(-c3ccc4c(c3)N([C@H]3C[C@@H](N5CCC[C@H](F)C5)C3)C(=O)C43CCN(C(=O)C4(C)CCN(C(=O)C5CCN(c6ccc(C7CCC(=O)NC7=O)cn6)CC5)CC4)CC3)nc(NC3CC3)c21 (mixture of isomers) [Example 203, (3RS)-3-(6-{4-[4-({6-[4-(cyclopropylamino)-3-(propan-2-yl)-3H-imidazo[4,5-c]pyridin-6-yl]-2-oxo-1-[(1S,3S)-3-[(3S)-3-fluoropiperidin-1-yl]cyclobutyl]-1,2-dihydrospiro[indole-3,4′-piperidin]-1′-yl}carbonyl)-4-methylpiperidine-1-carbonyl]piperidin-1-yl}pyridin-3-yl)piperidine-2,6-dione] | < 100 nM | 70 to 85%
CC(C)n1cnc2cc(-c3ccc4c(c3)N([C@H]3C[C@@H](N5CC6CCC(C5)O6)C3)C(=O)C43CCN(C(=O)C4(C)CCN(C(=O)C5CCN(c6ccc(C7CCC(=O)NC7=O)cn6)CC5)CC4)CC3)nc(NC3CC3)c21 (mixture of isomers) [Example 204, (3RS)-3-(6-{4-[4-({6-[4-(cyclopropylamino)-3-(propan-2-yl)-3H-imidazo[4,5-c]pyridin-6-yl]-2-oxo-1-[(1S,3S)-3-{8-oxa-3-Azabicyclo[3.2.1]octan-3-yl}cyclobutyl]-1,2-dihydrospiro[indole-3,4′-piperidin]-1′-yl}carbonyl)-4-methylpiperidine-1-carbonyl]piperidin-1-yl}pyridin-3-yl)piperidine-2,6-dione] | 100 to 500 nM | 70 to 85%
CC(C)n1cnc2cc(-c3ccc4c(c3)N([C@H]3C[C@@H](N5CCC[C@@H](F)C5)C3)C(=O)C43CCN(C(=O)C4(C)CCN(C(=O)CC5CCN(c6ccc(C7CCC(=O)NC7=O)cn6)CC5)CC4)CC3)nc(NC3CC3)c21 (mixture of isomers) [Example 205, (3RS)-3-[6-(4-{2-[4-({6-[4-(cyclopropylamino)-3-(propan-2-yl)-3H-imidazo[4,5-c]pyridin-6-yl]-2-oxo-1-[(1S,3S)-3-[(3R)-3-fluoropiperidin-1-yl]cyclobutyl]-1,2-dihydrospiro[indole-3,4′-piperidin]-1′-yl}carbonyl)-4-methylpiperidin-1-yl]-2-oxoethyl}piperidin-1-yl)pyridin-3-yl]piperidine-2,6-dione] | 100 to 500 nM | 50 to 70%
